Measured values as given in patent publication US20220288028A1, “A THERAPEUTIC APPROACH FOR TREATING NON-INFECTIOUS OCULAR IMMUNOINFLAMMATORY DISORDERS” (The Schepens Eye Research Institute, Inc., priority 2019, published 2022).
Structures can show the parent of a compound that is named as a salt.

Experiments:
ocular redness [1] = experiment: Guinea pig model of allergic ocular redness induced by histamine, Ocular Redness Index (ORI); type: in vivo; conditions: topical 1.0 mg/ml with 1.5 mg/ml histamine instillation, 20 μl; 1 hour; vs untreated induced control
Source text: (§1) An Image J-based, objective quantification method of ocular redness severity was developed without relying on ophthalmologists' subjective scoring (Amparo, et al. “The Ocular Redness Index: A Novel Automated Method for Measuring Ocular Injection.” Investigative Ophthalmology & Visual Science, 2013, pp. Quick submit: 2017-06-18T21:14:33-0400). This digital scoring method automatically analyzes patient eye images and gives the score as Ocular Redness Index (ORI), which ranges on a continuous centesimal scale from 0 to 100, with 100 the most severe redness. This method has been used in the animal models of ocular redness to evaluate the severity of redness.
(§2) The results obtained can be seen in FIGS. 10-14. In the evaluation of ocular redness in animal models using Ocular Redness Index (ORI) with Image J the following steps. Step 1: The conjunctival image was captured by means of a digital camera and was recorded as an RGB color JPEG image (3264×2448 pixels). […] Step 3: An ROI (Region Of Interest, area inside the yellow circle) was selected as the evaluation area by user, and the program read the red-green-blue (RGB) values of each pixel, converting it to huesaturation-value (HSV) space, and ultimately converted these values into a numeric centesimal value for redness in the selected area automatically. […]

ocular redness [2] = experiment: Rabbit model of non-allergic (non-infectious) ocular redness induced by dapiprazole, Ocular Redness Index (ORI); type: in vivo
Source text: as §1, §2

[3] = prevents use as an eye drop formulation; cited from earlier work
DED mice [4] = experiment: Mouse model of DED, topical NK1R antagonist: flow cytometry of cornea, draining lymph nodes and conjunctivae; type: in vivo, C57BL/6 mice; conditions: topical 1 μg/μl three times per day, day 14; for frequencies of MHC-II^hi CD11b^+ cells in the cornea: day 4 to 14; for frequencies of TH17 cells in the DLNs / frequencies of mature MHC-II^hi CD11b^+ cells in the DLNs / level of MHC-II expression by CD11b^+ cells in the DLNs: vs PBS
Method: (§3) Induction of Dry Eye Disease (DED): DED was induced by housing the mice in a low-humidity (relative humidity: <20%) controlled environment chamber (CEC) with constant airflow of 15 L/min and temperature of 21 to 23° C. for 14 days. Age- and sex-matched mice housed in room air conditions served as controls. Corneal epithelial disease was evaluated using fluorescein (Sigma-Aldrich) staining and scored using the National Eye Institute grading system (NEI, Bethesda, Md.; Chen Y. et al. IFN-gamma-Expressing TH17 Cells Are Required for Development of Severe Ocular Surface Autoimmunity. J Immunol 2017, 199:1163-9). 1 μl of 2.5% fluorescein was applied into the lateral conjunctival sac of the mice and after 3 minutes corneas were examined with a slit lamp biomicroscope under cobalt blue light. Punctate staining was recorded in a masked fashion with the standard National Eye Institute grading system of 0-3 for each of the five areas of the cornea.
Topical Treatment with NK1R Antagonist: Mice were assigned to one of four groups (n=5 each). 1 μg/μl of NK1R antagonists CP-99,994, L-733,060 (R&D systems, Minneapolis, MN) or PBS was administered topically three times per day from day 4 to day 14 after DED induction. Untreated DED mice served as controls.
Single Cell Suspension Preparation and Flow Cytometry: Submandibular and cervical draining lymph nodes (DLNs) were harvested and single cell suspensions were prepared. Cells were stimulated with phorbol 12-myristate 13-acetate (PMA, 50 ng/mL; Sigma-Aldrich) and Ionomycin (500 ng/mL; Sigma-Aldrich) for 6 hours in the presence of a commercial protein transport inhibitor (0.7 μL/100 μL media, Golgistop; BD Biosciences, San Jose, Calif.). Conjunctivae were harvested by lifting at the junction of bulbar and palpebral conjunctiva and dissecting along both bulbar and palpebral insertion points (Vannas Scissors; Storz, Bausch & Lomb). Conjunctiva samples were cultured in RPMI (Thermo Fisher Scientific, Waltham, Mass.) supplemented with 10% fetal bovine serum (FBS) and stimulated with PMA (50 ng/mL; Sigma-Aldrich) and Ionomycin (500 ng/mL; Sigma-Aldrich) in the presence of a protein transport inhibitor (0.7 μL/100 μL media, Golgistop; BD Biosciences) at 37° C. for 24 hours. Harvested corneas were digested in RPMI media containing 2 mg/ml collagenase type IV (Sigma-Aldrich) and 2 mg/ml DNase I (Roche) for 1 h at 37° C. The suspension was then filtered through a 70-μm cell strainer. Single-cell suspensions of DLN and cornea were stained with the following antibodies: Brilliant Violet 421-conjugated anti-mouse I-A/I-E (MHC-II), PE-conjugated anti-CD11c (BD Pharmingen, San Jose, Calif.), PerCP/Cy5.5-conjugated anti-CD11b, FITC-conjugated anti-CD4 (BioLegend, San Diego, Calif.), and PE-conjugated anti-interleukin 17A (eBioscience, San Diego, Calif.). Intranuclear staining with PE/Cy7-conjugated anti-Foxp3 (eBioscience) was performed after fixation and permeabilization of cells. Control samples were stained with appropriate isotype-matched antibodies. Stained cells were examined using an LSRII Flow Cytometer (BD Biosciences, Franklin Lakes, N.J., USA), and data were analyzed using commercial Summit software (Summit v4.3; Dako Colorado, Inc., Fort Collins, Colo.).

IL-17 = experiment: Mouse model of DED, topical NK1R antagonist: real-time PCR of conjunctivae; type: in vivo, C57BL/6 mice; conditions: topical 1 μg/μl three times per day; day 14; vs PBS; p=0.001
Method: as §3, with “1 μl of 2.5% fluorescein was applied into the lateral conjunctival sac of the mice and after 3 minutes corneas were examined with a slit lamp biomicroscope under cobalt blue light.” left out, “cornea. […]” for “cornea.”
Real-Time PCR: Bulbar and palpebral conjunctiva, cornea and trigeminal ganglion were harvested from mice and stored in TRIzol reagent (Invitrogen, Carlsbad, Calif.) at −80° C. until RNA was isolated and reverse-transcribed using RNeasy micro kit (Qiagen, Valencia, Calif.) and SuperScript III kit (Invitrogen). […] Samples were analyzed using a real-time PCR system (LightCycler 480 II System; Roche Applied Science, Indianapolis, Ind.), and results were analyzed by the comparative threshold cycle method, using GAPDH as an internal control.

DED mice [5] = experiment: Mouse model of DED, topical NK1R antagonist: corneal fluorescein staining (CFS); type: in vivo, C57BL/6 mice; conditions: topical 1 μg/μl three times per day, day 4 to 14; at day 7, 10 and 14; vs untreated and PBS-treated; p<0.05
Source text: FIGS. 6A, 6B, 7C, 8A-8C, and 9A-9D show the results of evaluating the in vivo therapeutic efficacy of blocking SP signaling in animal models of DED and ocular redness. DED was induced by exposing wild-type mice to desiccating stress using a controlled environment chamber for 14 days. No any other manipulations were used in the model. After 4 days induction, a clinical overt disease developed in mice (art-recognized model) and then a topical NK1R antagonist of either CP-99,994 or L-733,060, 3×/day, started and lasted for 10 days (until day 14). Untreated or PBS-treated mice serve as controls. Clinical severity of the disease was evaluated by clinical fluorescein scoring (CFS) using the National Eye Institute/Industry NEI grading scheme. […]
Induction of Dry Eye Disease (DED): DED was induced by housing the mice in a low-humidity (relative humidity: <20%) controlled environment chamber (CEC) with constant airflow of 15 L/min and temperature of 21 to 23° C. for 14 days. […] Corneal epithelial disease was evaluated using fluorescein (Sigma-Aldrich) staining and scored using the National Eye Institute grading system (NEI, Bethesda, Md.; Chen Y. et al. IFN-gamma-Expressing TH17 Cells Are Required for Development of Severe Ocular Surface Autoimmunity. J Immunol 2017, 199:1163-9). […]

[6] = tested on: corneal epithelial wound healing; conditions: subconjunctival injection, diabetic mice; cited from earlier work

Structure (SMILES)	frequencies of MHC-II^hi CD11b^+ cells in the cornea (DED mice [4])	frequencies of TH17 cells in the DLNs (DED mice [4])	frequencies of mature MHC-II^hi CD11b^+ cells in the DLNs (DED mice [4])	level of MHC-II expression by CD11b^+ cells in the DLNs (DED mice [4])	mRNA expression levels of IL-17 in conjunctivae (IL-17)	CFS scores and DED severity (DED mice [5])	also measured
Ic1ccccc1CN[C@@H]1C2CCN(CC2)[C@@H]1C(c1ccccc1)c1ccccc1 (racemic) [L-703,606]							ocular redness (change in ORI score) (ocular redness [1]): rapidly and consistently ameliorating the ocular redness; ocular redness (change in ORI score) (ocular redness [2]; topical 1.0 mg/ml with 5% dapiprazole instillation, 40 μl, 1 hour, vs untreated induced control): rapidly and consistently ameliorating the ocular redness
C[C@@H](O[C@H]1OCCN(Cc2n[nH]c(=O)[nH]2)[C@H]1c1ccc(F)cc1)c1cc(C(F)(F)F)cc(C(F)(F)F)c1 [MK-869, 5-[[(2R,3S)-2-[(1R)-[3,5-Bis(trifluoromethyl)phenyl]ethoxy]-3-(4-fluorophenyl)-4-morpholinylinyl]methyl]-1,2-dihydro-3H-1,2,4-triazol-3-one]							water solubility [3]: Poor water solubility
COc1ccccc1CN[C@H]1CCCN[C@H]1c1ccccc1 [CP-99,994, (2S,3S)-N-[(2-Methoxyphenyl)methyl]-2-phenyl-3-piperidinamine dihydrochloride]	significantly lower	significantly decreased	significant decrease	significant decrease	significant reduction	significantly reduced CFS scores and DED severity	
Cc1ccccc1N1CCN(CCc2nnc3n2CCCC3)CC1 [dapiprazole]							change in ORI score after induction (ocular redness [2]; 5% dapiprazole, 40 μl topical, series of increasing concentrations, 1-hour observation, vs PBS): highest increase in ORI score
FC(F)(F)c1cc(CO[C@H]2CCCN[C@H]2c2ccccc2)cc(C(F)(F)F)c1 [L-733,060, (2S,3S)-3-[[3,5-bis(Trifluoromethyl)phenyl]methoxy]-2-phenylpiperidine hydrochloride]	significantly lower	significantly decreased	significant decrease	significant decrease	significant reduction	significantly reduced CFS scores and DED severity	protective role of SP on epithelial healing [6]: significantly inhibits the protective role of SP on epithelial healing
